Laboratory results: PubChem BioAssay AID2060504 (Molecular Pharmacology Branch, DTP, NCI, 2025)

System: 636577-100-R-J1-PDC complex spheroid viability
Test: Anticancer human tumor 636577-100-R-J1-PDC patient-derived endometrial adenocarcinoma cell line growth inhibition [GQUAD]
Conditions: for IC50: curve of first compound; for viability, T/C: stronger effect = lower value; active means viability on the fitted dose curve at most 10% of control; inactive means the rest
How it was run: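 Viability of tumor cells grown as complex spheroids with endothelial and stromal cells, exposed to drug combinations. Top concentration at or near clinical Cmax (else 10 microM), diluted in half-log increments.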

[1] = second compound 0.0316 µM, first compound 0.0316 µM
[2] = second compound 0.0316 µM, first compound 0.1 µM
[3] = second compound 0.0316 µM, first compound 0.316 µM
[4] = second compound 0.0316 µM, first compound 1 µM
[5] = second compound 0.0316 µM, first compound 3.16 µM
[6] = second compound 0.0316 µM, first compound 10 µM
[7] = second compound 0.1 µM, first compound 0.0316 µM
[8] = second compound 0.1 µM, first compound 0.1 µM
[9] = second compound 0.1 µM, first compound 0.316 µM
[10] = second compound 0.1 µM, first compound 1 µM
[11] = second compound 0.1 µM, first compound 3.16 µM
[12] = second compound 0.1 µM, first compound 10 µM
[13] = second compound 0.316 µM, first compound 0.0316 µM
[14] = second compound 0.316 µM, first compound 0.1 µM
[15] = second compound 0.316 µM, first compound 0.316 µM
[16] = second compound 0.316 µM, first compound 1 µM
[17] = second compound 0.316 µM, first compound 3.16 µM
[18] = second compound 0.316 µM, first compound 10 µM
[19] = second compound 1 µM, first compound 0.0316 µM
[20] = second compound 1 µM, first compound 0.1 µM
[21] = second compound 1 µM, first compound 0.316 µM
[22] = second compound 1 µM, first compound 1 µM
[23] = second compound 1 µM, first compound 3.16 µM
[24] = second compound 1 µM, first compound 10 µM
[25] = second compound 3.16 µM, first compound 0.0316 µM
[26] = second compound 3.16 µM, first compound 0.1 µM
[27] = second compound 3.16 µM, first compound 0.316 µM
[28] = second compound 3.16 µM, first compound 1 µM
[29] = second compound 3.16 µM, first compound 3.16 µM
[30] = second compound 3.16 µM, first compound 10 µM
[31] = second compound 10 µM, first compound 0.0316 µM
[32] = second compound 10 µM, first compound 0.1 µM
[33] = second compound 10 µM, first compound 0.316 µM
[34] = second compound 10 µM, first compound 1 µM
[35] = second compound 10 µM, first compound 3.16 µM
[36] = second compound 10 µM, first compound 10 µM
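Further: viability read after seven days of drug exposure.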
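Wherever viability, T/C is given: luminescence signal used as a proxy for viable cells; 100% = DMSO vehicle control wells.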

COc1cccc2c1C(=O)c1c(O)c3c(c(O)c1C2=O)CC(O)(C(=O)CO)CC3OC1CC(N)C(O)C(C)O1 (stereo unspecified) + Cc1[nH]c2ccc(F)cc2c1-c1nc2c3cccnc3c3ncccc3c2[nH]1
< 0.0316 µM: IC50 (second compound 0.0316 µM) | IC50 (second compound 0.1 µM) | IC50 (second compound 0.316 µM) | IC50 (second compound 1 µM) | IC50 (second compound 3.16 µM) | IC50 (second compound 10 µM)
inactive: viability, T/C [1] 37.8% | viability, T/C [2] 16.7% | viability, T/C [3] 15.8% | viability, T/C [7] 39.7% | viability, T/C [8] 18% | viability, T/C [13] 37% | viability, T/C [14] 18.9% | viability, T/C [15] 14% | viability, T/C [19] 29.9% | viability, T/C [20] 18.7% | viability, T/C [21] 12.2% | viability, T/C [25] 18.3% | viability, T/C [26] 18.4% | viability, T/C [27] 16.1% | viability, T/C [31] 30.1% | viability, T/C [32] 18.8% | viability, T/C [33] 16.1%
active: viability, T/C [4] 11.2% | viability, T/C [5] 0.53% | viability, T/C [6] 0.35% | viability, T/C [9] 8.25% | viability, T/C [10] 9.06% | viability, T/C [11] 0.53% | viability, T/C [12] 0.34% | viability, T/C [16] 9.89% | viability, T/C [17] 0.62% | viability, T/C [18] 0.43% | viability, T/C [22] 8.92% | viability, T/C [23] 0.78% | viability, T/C [24] 0.5% | viability, T/C [28] 11.4% | viability, T/C [29] 0.97% | viability, T/C [30] 0.58% | viability, T/C [34] 11.9% | viability, T/C [35] 0.69% | viability, T/C [36] 0.49%

CC1COCCN1c1cc(C2(S(C)(=N)=O)CC2)nc(-c2ccnc3[nH]ccc23)n1 (stereo unspecified) + CN(C)c1ccc(Nc2c3ccc(NC(=O)CCN4CCCC4)cc3nc3cc(NC(=O)CCN4CCCC4)ccc23)cc1
< 0.0316 µM: IC50 (second compound 3.16 µM) | IC50 (second compound 10 µM)
1.04 µM: IC50 (second compound 0.0316 µM)
0.934 µM: IC50 (second compound 0.1 µM)
0.463 µM: IC50 (second compound 0.316 µM)
active: viability, T/C [31] 6.13% | viability, T/C [32] 5.83% | viability, T/C [33] 5.26% | viability, T/C [34] 5.47% | viability, T/C [35] 3.58% | viability, T/C [36] 1.72%
0.626 µM: IC50 (second compound 1 µM)
inactive: viability, T/C [1] 91.4% | viability, T/C [2] 74.6% | viability, T/C [3] 89.4% | viability, T/C [4] 51.2% | viability, T/C [5] 21.4% | viability, T/C [6] 14% | viability, T/C [7] 78.4% | viability, T/C [8] 71.3% | viability, T/C [9] 89.4% | viability, T/C [10] 48.1% | viability, T/C [11] 22.4% | viability, T/C [12] 14.6% | viability, T/C [13] 75.7% | viability, T/C [14] 67.3% | viability, T/C [15] 54.2% | viability, T/C [16] 41.2% | viability, T/C [17] 24.4% | viability, T/C [18] 14.1% | viability, T/C [19] 42.9% | viability, T/C [20] 80.2% | viability, T/C [21] 65% | viability, T/C [22] 41.2% | viability, T/C [23] 23.6% | viability, T/C [24] 16% | viability, T/C [25] 34.6% | viability, T/C [26] 45.8% | viability, T/C [27] 34% | viability, T/C [28] 29.5% | viability, T/C [29] 18.3% | viability, T/C [30] 13.2%

COc1cc(C2c3cc4c(cc3C(OC3OC5COC(C)OC5C(O)C3O)C3COC(=O)C23)OCO4)cc(OC)c1O (stereo unspecified) + Cc1cnc(CNC(=O)c2c(=O)c3ccc(N4CCCN(C)CC4)nc3n3c2sc2ccccc23)cn1
< 0.0316 µM: IC50 (second compound 0.0316 µM) | IC50 (second compound 0.1 µM) | IC50 (second compound 0.316 µM) | IC50 (second compound 1 µM) | IC50 (second compound 3.16 µM) | IC50 (second compound 10 µM)
inactive: viability, T/C [1] 28.9% | viability, T/C [2] 21.4% | viability, T/C [3] 18.5% | viability, T/C [4] 14.2% | viability, T/C [5] 13.7% | viability, T/C [6] 10.5% | viability, T/C [7] 25.8% | viability, T/C [8] 22.7% | viability, T/C [9] 18.6% | viability, T/C [10] 13.6% | viability, T/C [11] 16.5% | viability, T/C [12] 12.9% | viability, T/C [13] 22.2% | viability, T/C [14] 21.3% | viability, T/C [15] 17.8% | viability, T/C [16] 16.4% | viability, T/C [17] 17% | viability, T/C [18] 13.2% | viability, T/C [19] 21.5% | viability, T/C [20] 19.1% | viability, T/C [21] 17.6% | viability, T/C [22] 18.9% | viability, T/C [23] 17.8% | viability, T/C [24] 12.5% | viability, T/C [25] 19.3% | viability, T/C [26] 16.4% | viability, T/C [27] 19.6% | viability, T/C [28] 19.2% | viability, T/C [29] 18.2% | viability, T/C [30] 13.4% | viability, T/C [31] 17.8% | viability, T/C [32] 18.5% | viability, T/C [33] 19.4% | viability, T/C [34] 19.2% | viability, T/C [35] 17.7% | viability, T/C [36] 12.3%
